Assay results as given in paper PMC11249646, “Small-Molecule Disruptors of the Interaction between Calcium- and Integrin-Binding Protein 1 and Integrin αIIbβ3 as Novel Antiplatelet Agents” (ACS Pharmacology & Translational Science, 2024).
Like-named read-outs stand apart in the source and are kept apart here.

How the values were obtained:
Assay type in all cases: binding
[1] = target: T1, GST-CIB1 : F-scrambled peptide (Homo sapiens, UniProt Q99828); experiment: FP scrambled-peptide counter screen, 384-well format; details: F-scrambled peptide; for 384-well COUNTERSCREEN Confirm?: *: Curve in opposite direction; for IC50: read-out: 384-well COUNTERSCREEN IC50
T1 construct: made in house; host or cells: BL-21 plus RIL cells (E. coli)
T1 sequence (Q99828 1-191): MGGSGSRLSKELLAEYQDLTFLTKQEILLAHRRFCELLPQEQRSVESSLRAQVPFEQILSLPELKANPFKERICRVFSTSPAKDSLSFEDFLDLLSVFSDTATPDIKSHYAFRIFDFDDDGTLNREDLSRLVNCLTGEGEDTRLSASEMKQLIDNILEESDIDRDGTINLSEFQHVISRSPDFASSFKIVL

[2] = target: T2, CIB1 and αIIb interaction (GST-CIB1 : F-αIIb peptide) (Homo sapiens, UniProt Q99828); experiment: FP assay, 384-well format (screen); set-up: 384-well SCREEN Efficacy (%): concentration or dose not given beside the values; details: F-αIIb peptide; for 384-well SCREEN Confirm?: YES/NO; for IC50: read-out: 384-well SCREEN IC50
T2 construct: made in house; host or cells: BL-21 plus RIL cells (E. coli)
T2 sequence (Q99828 1-191): T1 sequence (Q99828 1-191)

[3] = target: T3, CIB1 and αIIb interaction (CIB1-GST : F-αIIb peptide) (Homo sapiens, UniProt Q99828); experiment: FP assay, 1536-well qHTS format (primary and confirmatory screen); details: for CONFIRMATORY SCREEN Confirm?: YES/NO call; for CONFIRMATORY SCREEN Curve Class: qHTS curve class; for CONFIRMATORY SCREEN Curve Class / Curve Class: negative sign = inhibitory curve; for CONFIRMATORY SCREEN Efficacy (%) / Efficacy (%): negative = inhibition
T3 construct: made in house; host or cells: BL-21 plus RIL cells (E. coli)
T3 sequence (Q99828 1-191): T1 sequence (Q99828 1-191)

[4] = target: T1, GST-CIB1 : F-scrambled peptide; experiment: FP scrambled-peptide counter screen, 1536-well format; details: scrambled-peptide counterscreen; for COUNTERSCREEN Confirm?: YES/NO call; for COUNTERSCREEN Curve Class: qHTS curve class; for IC50: read-out: COUNTERSCREEN IC50
[5] = confirmatory screen, read-out: CONFIRMATORY SCREEN IC50
[6] = qHTS primary screen hits, Table S2
[7] = qHTS primary screen hits, Table S2, several classes where COUNT > 1
[8] = qHTS primary screen hits, Table S2, read-out: IC50
[9] = qHTS FP screen hits, Table S2, one class per curve where COUNT > 1

| Structure (SMILES) | 384-well COUNTERSCREEN Efficacy (%) [1] | 384-well COUNTERSCREEN Confirm? [1] | IC50 [1] | 384-well SCREEN Efficacy (%) [2] | 384-well SCREEN Confirm? [2] | IC50 [2] | CONFIRMATORY SCREEN Confirm? ([3]; confirmatory screen) | CONFIRMATORY SCREEN Curve Class ([3]; confirmatory screen) | CONFIRMATORY SCREEN Efficacy (%) ([3]; confirmatory screen) | IC50 [3, 5] | Efficacy (%) [3, 6] | Curve Class [3, 7] | IC50 [3, 8] | COUNTERSCREEN Efficacy (%) [4] | COUNTERSCREEN Confirm? [4] | COUNTERSCREEN Curve Class [4] | Curve Class [3, 6] | also measured |
| --- | --- | --- | --- | --- | --- | --- | --- | --- | --- | --- | --- | --- | --- | --- | --- | --- | --- | --- |
| CCc1ccc(S(=O)(=O)Nc2cnccc2C(=O)Nc2nc(-c3ccccc3)cs2)cc1.O=C(O)C(F)(F)F [NCGC00344909-01] | 44% | YES | > 120 µM | 40% | YES | 35.5 µM | YES | -2.2 | -82% | 22.4 µM | -57% | -2.2 | 79.4 µM | 14% | YES | 4 | – | – |
| CC[C@@H](CO)NC(=O)[C@@H]1C=C2c3cccc4[nH]cc(c34)C[C@H]2N(C)C1.O=C(O)/C=C\C(=O)O [NCGC00017258-05] | 80% | – | – | 80% | YES | 60 µM | YES | -2.4 | -34% | – | – | – | – | -16% | YES | 4 | – | Efficacy (%) ([3]; qHTS FP screen hits, Table S2): -131%; Curve Class [3, 9]: -2.1 |
| O=C(Cc1ccc(Cl)c(Cl)c1)Nc1ccc(S(=O)(=O)Nc2nnc(-c3ccccn3)s2)cc1.O=C(O)C(F)(F)F [NCGC00248355-01] | 38% | YES | > 120 µM | 44% | YES | 11.2 µM | YES | -2.1 | -132% | 35.5 µM | -50% | -1.2 | 25.1 µM | -73% | YES | -2.4 | – | IC50 [4]: 79.4 µM |
| CSC(Cc1ccc(Cl)cc1)C(=O)Nc1ccc(Cl)cc1C(=O)O.O=C(O)C(F)(F)F (centres unmarked) [NCGC00189231-01] | 29% | YES | > 120 µM | 31% | YES | 120 µM | YES | -2.4 | -50% | 44.7 µM | -23% | -2.4 | 22.4 µM | 0% | YES | 4 | – | – |
| Cc1ccc(S(=O)(=O)Nc2cnccc2C(=O)Nc2nc(-c3ccc4c(c3)CCCC4)cs2)cc1.O=C(O)C(F)(F)F [NCGC00318953-01] | 125% | – | 35.5 µM | 20% | – | > 120 µM | YES | -1.2 | -70% | – | – | – | – | -23% | YES | 4 | – | Efficacy (%) ([3]; qHTS FP screen hits, Table S2): -37%; Curve Class [3, 9]: -1.2; IC50 ([3]; qHTS FP screen hits, Table S2, read-out: IC50): 20 µM |
| O=C1C=CC(=O)N1c1cccc(Br)c1 [NCGC00373120-01] | 74% | YES | > 120 µM | 42% | YES | 10 µM | YES | -1.2 | -38% | 8.9 µM | -54% | – | 7.1 µM | 14% | YES | 4 | -1.2 | – |
| Cc1csc(CNc2ncnc3ccc(-c4ccc(CO)o4)cc23)n1.O=C(O)C(F)(F)F [NCGC00229623-01] | 39% | – | 25.1 µM | 70% | YES | 35.5 µM | YES | -3 | -83% | – | -60% | – | – | -25% | YES | 4 | -2.2 | – |
| Cc1cc(Nc2c(Nc3nnc(-c4ccncc4)s3)c(=O)c2=O)ccc1Cl.O=C(O)C(F)(F)F [NCGC00241510-01] | 64% | – | > 120 µM | 23% | – | > 120 µM | YES | -1.4 | -51% | 11.2 µM | -35% | – | 39.8 µM | -33% | YES | -2.2 | -2.4 | IC50 [4]: 44.7 µM |
| COC(=O)c1ccc2c(c1)S(=O)(=O)N=C2Sc1cc(C)ccc1C [NCGC00238687-01] | 45% | YES | > 120 µM | 65% | YES | 11.2 µM | YES | -1.2 | -59% | 28.2 µM | -49% | -2.2 | 39.8 µM | -10% | YES | 4 | – | – |
| Cc1ccccc1S(=O)(=O)Nc1cnccc1C(=O)Nc1nc(-c2ccccc2)cs1.O=C(O)C(F)(F)F [NCGC00344941-01] | 20% | YES | > 120 µM | 35% | YES | 17.8 µM | YES | -1.2 | -59% | – | -51% | -2.2 | 44.7 µM | 10% | YES | 4 | – | – |
